Experimental data taken from EP0503537B1, “6,9 Bis(substituted-amino)benzo-[g]isoquinoline-5,10-diones” (THE UNIVERSITY OF VERMONT, priority 1991, dated 1992).
Values after ≈ are worked out from the molar mass of the structure shown. Read-outs that look alike come from different tables or passages of the source.

What was measured:
[1] = system: human colon adenocarcinoma cell line (Lovo); assay: MTT cytotoxicity assay on human colon adenocarcinoma Lovo cells; assay type: cell-based; settings: read-out: IC50 µg/ml±S.D. LoVo
Description: (§1) The evaluation of the "in vitro" cytotoxic activity of the compounds of the invention was performed using a human colon adenocarcinoma cell line (Lovo) isolated from a metastatic nodule and a subline with aquired resistance to a number of antitumor agents, among which doxorubicin, VP-16 and vincristine. […] The compounds were tested according to the MTT assay (Mosman, T., "Rapid Colorimetric assay for cellular growth and survival: application to proliferation and cytotoxicity assay", J. Immunol. Methods, (1983), 65, 55-63; Green, L.M., "Rapid colorimetric assay for cell viability; application to the quantitation of cytotoxic and growth inhibitory lymphokines", J. Immunol. Methods, (1984), 70, 257-268) in comparison with mitoxantrone, ametantrone and doxorubicin.
(§2) In vitro biological evaluation: MTT assay on human colon adenocarcinoma Lovo cells.
(§3) The MTT assay was performed according to Mosmann, T., J. Immunol. Methods, (1983), 65, 55-63 and Green, L. M., J. Immunol. Methods, (1984), 70, 257-268.
(§4) Immediately before use, compounds and reference standards are dissolved in proper solvent and subsequently further diluted in complete culture medium. Human colon adenocarcinoma cells Lovo and the subline resistant to doxorubicin (Lovo/DX) (2.5. 10^4 cells/ml) are plated in 96-well plates and preincubated for 24 hours in culture medium. After this time, the cells are exposed to drugs for 144 hours, then the thiazolyl blue tetrazolium bromide solution (MTT solution) is added and the cells are reincubated for 4 hours. The supernatant is removed and 150 µl of dimethylsulfoxide are added to solubilize formazan crystals. The plate is read at 570 nm with microplate reader and the inhibiting concentration of 50% cellular growth (IC50; µg/ml) is calculated.

Lovo/DX = assay: MTT cytotoxicity assay on doxorubicin-resistant subline Lovo/DX; assay type: cell-based, human; settings: for IC50: Homo sapiens, LoVo/DX, MTT assay, 144 hrs drug exposure, read-out: IC50 µg/ml±S.D. LoVo/Dx; for R.I.: R.I. = (IC50 LoVo/Dx)/(IC50 LoVo); for cross resistance with mitoxantrone and ametantrone: resistant subline Lovo/DX
Description: as §1, §2, §3, §4

P388 Murine Leukemia [2] = assay: In vivo P388 murine leukemia (iv/iv, d 1, 4, 7); settings: for T/C% (range): median survival time; for TOX: toxic deaths/total number of mice; for LTS: tumor free at 60 days
Description: P388 Murine Leukemia cells were maintained in vivo by serial intraperitoneal (i.p.) injections of 10^6 cells in DBA2 mice. For test purposes, CDF1 mice were inoculated intravenously (i.v.) with 10^6 P388 cells and treatment was initiated 24 hr later. The i.v. dose of drug was administered on days 1, 4 and 7. Mice were observed daily for signs of toxicity and survival. The date of death was recorded for each animal that died or was sacrificed during the 60 day study. The median survival time (MST) for each treatment group was calculated and the % T/C was determined using the following formula: % T/C = [(MST treated)/(MST control)] x 100 [formula]

P388 Murine Leukemia [3] = assay: In vivo ascitic P388 murine leukemia (ip/ip, d 1, 5, 9); set-up: species or system CDF1 mice; settings: for % T/C (range): median survival time; for TOX: toxic deaths/total No. of mice
Description: Treatment was initiated approximately 24 hours after tumor transplantation and dosages of the drug were administered ip (P388 ip/ip) or iv (P388 iv/iv) according to preestablished protocols, usually at 3-day (P388 iv/iv) or 4-day (P388 ip/ip) intervals. The studies were done over a 60-day period and the date of death for each animal was recorded. The % T/C was determined using the mean survival time (MST) for each group according to the formula % T/C = [(MST treated)/(MST control)] x 100 [formula]
(§5) P388 Murine Leukemia cells were maintained in vivo by serial intraperitoneal (ip) injections of 10^6 cells in DBA2 mice. For test purposes, CDF1 mice were inoculated i.p. with 10^6 P388 cells and treatment was initiated 24 hours later. The i.p dose of drug was administered on days 1, 5 and 9. Mice were observed daily for signs of toxicity and survival. The date of death was recorded for each animal that died or was sacrificed during the 60-day study. The median survival time (MST) for each treatment group was calculated and the % T/C was determined using the following formula: % T/C = [(MST treated)/(MST control)] x 100 [formula]

L1210 murine leukemia = assay: In vivo ascitic L1210 murine leukemia (ip/ip, d 1, 5, 9), protocol b, 10^5 cells; set-up: species or system CDF1 mice; settings: for %T/C: median survival time; for TOX: toxic deaths/total No. of mice; for LTS: tumor free at 60 days
Description: Dosages of the drugs were administered ip according to preestablished protocols, usually at 4-day intervals. The studies were done over a 60-day period and the date of death for each animal was recorded. The % T/C was determined using the mean survival time (MST) for each group according to the formula % T/C = [(MST treated)/(MST control)] x 100 [formula]
as §5, with “• a) L1210 murine leukemia cells” for “P388 Murine Leukemia cells”, “by weekly” for “by serial”, “in BDF1” for “in DBA2”, “mice. For test purposes, mice were inoculated i.p. with 10^6 L1210 cells and treatment was initiated 24 hours later. The desired dose of drug was administered on days 1, 5 and 9. Mice were observed daily for signs of toxicity and survival. The date of death was recorded for each animal that died or was sacrificed during the 60-day study. […]” for “mice.”, “with 10^5 L1210” for “with 10^6 P388”, “The desired” for “The i.p”

[4] = MTT assay, 144 hrs drug exposure

O=C1c2ccccc2C(=O)c2c(NCCNCCO)ccc(NCCNCCO)c21 [Ametantrone, 1,4-bis{[2-(2-hydroxyethylamino)ethyl]amino}anthracene-9,10-dione, reference compound] gave an IC50 [1, 4] of 0.33 ± 0.1 µg/mL (≈ 0.8 µM), an IC50 (Lovo/DX) of 33.4 ± 13.9 µg/mL (≈ 81 µM) and a R.I. (Lovo/DX) of 101.2.

Work on O=C1c2ccncc2C(=O)c2c(NCCN3CCCC3)ccc(NCCN3CCCC3)c21 [Compound 10d, 6,9-Bis{[2-(1'-pyrrolidino)ethyl]amino}benzo[g]isoquinoline-5,10-dione] yielded an IC50 [1, 4] of 0.2 ± 0.03 µg/mL (≈ 0.461 µM), an IC50 (Lovo/DX) of 0.52 ± 0.15 µg/mL (≈ 1.2 µM) and a R.I. (Lovo/DX) of 2.6. For the same molecule, the “cross resistance with mitoxantrone and ametantrone” value (from here on “cross resistance”) (Lovo/DX) was “no cross resistance”.

Molecule NCCCNc1ccc(NCCCN)c2c1C(=O)c1ccncc1C2=O [Compound 12a, 6,9-Bis{[3-(amino)propyl]amino}benzo[g]isoquinoline-5,10-dione] has an IC50 [1, 4] of 1.64 ± 0.02 µg/mL (≈ 4.64 µM), an IC50 (Lovo/DX) of 20.9 ± 0.72 µg/mL (≈ 59.1 µM) and a R.I. (Lovo/DX) of 12.7.

In the case of CCN(CC)CCNc1ccc(NCCN(CC)CC)c2c1C(=O)c1ccncc1C2=O [Compound 10b, 6,9-Bis{[2-(diethylamino)ethyl]amino}benzo[g]isoquinoline-5,10-dione], the IC50 [1, 4] is reported as 0.29 ± 0.05 µg/mL (≈ 0.663 µM), the IC50 (Lovo/DX) is reported as 0.69 ± 0.1 µg/mL (≈ 1.58 µM) and the R.I. (Lovo/DX) is reported as 2.4. The “cross resistance” value (Lovo/DX) was “no cross resistance”.

Molecule O=C1c2c(O)ccc(O)c2C(=O)c2c(NCCNCCO)ccc(NCCNCCO)c21 [Mitoxantrone, 5,8-dihydroxy-1,4-bis{[2-(2-hydroxyethylamino)ethyl]amino}anthracene-9,10-dione, reference compound] has an IC50 ([1]; 144 h) of 0.01 ± 0.009 µg/mL (≈ 0.0225 µM), an IC50 (Lovo/DX) of 0.29 ± 0.1 µg/mL (≈ 0.652 µM) and a R.I. (Lovo/DX) of 29.0. The “T/C% (range)” value (P388 Murine Leukemia [2]; 2 mg/kg/day iv days 1,4,7) was 162(154-167) %, the TOX (P388 Murine Leukemia [2]; 2 mg/kg/day iv days 1,4,7) was 0/42 and the LTS (P388 Murine Leukemia [2]; 2 mg/kg/day iv days 1,4,7) was 0/42. For the same molecule, the “T/C% (range)” value (P388 Murine Leukemia [2]; 3 mg/kg/day iv days 1,4,7) was 185(167-217) %, the TOX (P388 Murine Leukemia [2]; 3 mg/kg/day iv days 1,4,7) was 4/78 and the LTS (P388 Murine Leukemia [2]; 3 mg/kg/day iv days 1,4,7) was 0/78. For the same molecule, the “T/C% (range)” value (P388 Murine Leukemia [2]; 4 mg/kg/day iv days 1,4,7) was 118(89-133) %, the TOX (P388 Murine Leukemia [2]; 4 mg/kg/day iv days 1,4,7) was 20/24 and the LTS (P388 Murine Leukemia [2]; 4 mg/kg/day iv days 1,4,7) was 0/24. The “LTS (day 60)” value (P388 Murine Leukemia [3]; 1.5 mg/kg/day ip days 1,5,9) was 1/26, the “% T/C (range)” value (P388 Murine Leukemia [3]; 1.5 mg/kg/day ip days 1,5,9) was 186(160-225) % and the TOX (P388 Murine Leukemia [3]; 1.5 mg/kg/day ip days 1,5,9) was 6/26. The “LTS (day 60)” value (P388 Murine Leukemia [3]; 3 mg/kg/day ip days 1,5,9) was 1/42, the “% T/C (range)” value (P388 Murine Leukemia [3]; 3 mg/kg/day ip days 1,5,9) was 173(142-205) % and the TOX (P388 Murine Leukemia [3]; 3 mg/kg/day ip days 1,5,9) was 21/42. The “%T/C” value (L1210 murine leukemia; 1.5 mg/kg/day ip days 1,5,9) was 188%, the TOX (L1210 murine leukemia; 1.5 mg/kg/day ip days 1,5,9) was 0/8 and the LTS (L1210 murine leukemia; 1.5 mg/kg/day ip days 1,5,9) was 1/8. For the same molecule, the “%T/C” value (L1210 murine leukemia; 3 mg/kg/day ip days 1,5,9) was 194%, the TOX (L1210 murine leukemia; 3 mg/kg/day ip days 1,5,9) was 1/8 and the LTS (L1210 murine leukemia; 3 mg/kg/day ip days 1,5,9) was 1/8.

Molecule COc1cccc2c1C(=O)c1c(O)c3c(c(O)c1C2=O)C[C@@](O)(C(=O)CO)C[C@@H]3O[C@H]1C[C@H](N)[C@H](O)[C@H](C)O1 [Doxorubicin, reference compound] has an IC50 [1, 4] of 0.03 ± 0.009 µg/mL (≈ 0.0552 µM), an IC50 (Lovo/DX) of 4.28 ± 1.8 µg/mL (≈ 7.87 µM) and a R.I. (Lovo/DX) of 142.7.

O=C1c2ccncc2C(=O)c2c(NCCN3CCOCC3)ccc(NCCN3CCOCC3)c21 [Compound 10e, 6,9-Bis{[2-(4'-morpholino)ethyl]amino}benzo[g]isoquinoline-5,10-dione] showed an IC50 [1, 4] of 5.32 ± 1.55 µg/mL (≈ 11.4 µM), an IC50 (Lovo/DX) of 2.29 ± 0.67 µg/mL (≈ 4.92 µM) and a R.I. (Lovo/DX) of 0.4. The “cross resistance” value (Lovo/DX) was “no cross resistance”.

CN(C)CCCNc1ccc(NCCCN(C)C)c2c1C(=O)c1ccncc1C2=O [Compound 12c, 6,9-Bis{[3-(dimethylamino)propyl]amino}benzo[g]isoquinoline-5,10-dione] gave an IC50 [1, 4] of 0.15 ± 0.07 µg/mL (≈ 0.366 µM), an IC50 (Lovo/DX) of 0.36 ± 0.04 µg/mL (≈ 0.879 µM) and a R.I. (Lovo/DX) of 2.4. For the same molecule, the “cross resistance” value (Lovo/DX) was “no cross resistance”.
